# Reference: patent publication US10946024B2, “Method for treating cancer” (Epizyme, Inc., priority 2014, dated 2021)
# How the values were obtained:
# [1] = tested on: H3K27me3/total H3 in HS-SY-II cells; test: H3K27 methylation alterations by ELISA of extracted histones; type: cell-based, human; settings: 96 hours
# Protocol: HS-SY-II and SW982 cells were treated with either DMSO or Compound A starting at 40 nmol/L and decreasing in fourfold dilutions for 96 hours. Cells were washed by ice cold PBS, harvested by cell scraper, and lysed with 100 μl of nuclear extraction buffer (10 mM Tris-HCl, 10 mM MgCl2, 25 mM KCl, 1% Triton X-100, 8.6% Sucrose, plus 1× Halt Protease inhibitor cocktail (1861281, Thermo Scientific). Nuclei were collected by centrifugation at 600 g for 5 minutes at 4° C. and washed once with ice cold PBS. Supernatant was removed and histones extracted for one hour with 100 μL of 0.4 N cold sulfuric acid. Extracts were clarified by centrifugation at 10,000 g for 10 minutes at 4° C. and transferred to a fresh microcentrifuge tube containing 1 mL of ice cold acetone. Histones were precipitated at −20° C. for overnight, pelleted by centrifugation at 10,000 g for 10 minutes and resuspended in 100 μl of water. Histones were quantified using the BCA protein assay (23225, Pierce). […] Subsequently, the developed colors in the wells were measured using a plate spectrophotometer (SpectraMax 250, Molecular Devices) at 450 nm (reference wavelength 650 nm). The H3K27me3 levels were adjusted to total histone H3, and expressed as fold changes to DMSO control.
# The range of IC50 values (two independent experiments), shown in FIG. 6B, were determined by GraphPad Prism (GraphPad Software).
# [2] = tested on: synovial sarcoma PDX (CTG-0771, CTG-0331); test: Tumor volume in mice bearing patient-derived xenografts (PDX) of synovial sarcoma, 35 days; type: in vivo; settings: oral 125, 250 or 500/400 mg/kg for 35 days
# Protocol: FIGS. 11A and 11C show mean in vivo tumor volumes for athymic nude mice bearing one of two different PDX of synovial sarcoma tumors. FIGS. 11B and 11D show percent survival for mice bearing a PDX. Mice were dosed with either vehicle (oral for 35 days), Compound A (oral: 125 mg/kg, 250 mg/kg, or 500/400 mg/kg for 35 days) or Doxorubicin (iv: 3 mg/kg, once a week for 3 weeks). FIGS. 11A and 11B show data from mice bearing PDX from high-grade spindle cell sarcoma. FIGS. 11C and 11D show data from mice bearing PDX.
# Immunocompromised female mice (Taconic; NCr nude) were implanted unilaterally in the flank region with tumor fragments (5 mm×5 mm×5 mm) harvested from donor animals, each implanted from a specific passage lot (CTG-0331 and CTG-0771 at P4). When tumors reached approximately 100-300 mm^3, animals were matched by tumor volume into treatment and control groups and dosing initiated. Vehicle (0.5% NaCMC plus 0.1% Tween 80 in water) or Compound A (500 mg/kg for CTG-0331 and 500 mg/kg decreased to 400 mg/kg on Day 17 for CTG-0771) was administered orally BID at a dose volume of 10 μL/g for 35 days. Tumor size was measured twice weekly. On Day 35, up to 5 mice with the largest tumor burden were euthanized for tumor collection 3 hours after final dose, and flash frozen. […]
# [3] = tested on: H3K27me3 in HS-SY-II xenograft; test: H3K27me3 by ELISA in HS-SY-II xenograft tumors harvested on Day 28 (second study); type: in vivo, mice; settings: Day 28, 3 h after the last dose
# Protocol: FIGS. 10A to 10C show mean in vivo tumor volumes for athymic nude mice bearing HS-SY-II xenografts. In a first study, mice were dosed with either vehicle (oral for 28 days or iv on Day 1 and Day 22), Compound A (oral: 125 mg/kg, 250 mg/kg, or 500 mg/kg for 28 days), or Doxorubicin (iv: 10 mg/kg, Day 1 and Day 22); tumor volumes were measured twice a week (FIGS. 10A and 10B). In a second study, mice were dosed with either vehicle (oral for 28 days), Compound A (oral: 250 mg/kg or 500 mg/kg for 28 days), Doxorubicin (iv: 10 mg/kg on Day 1 and Day 22), or a combination of Doxorubicin (iv: 10 mg/kg on Day 1 and Day 22) and Compound A (oral: 250 mg/kg for 28 days) (FIG. 10C). Tumors from animals of the second study were harvested on Day 28 (3 h after the last dose) and subjected to H3K27me3 analysis by ELISA (FIG. 10D) or IHC for the proliferation marker Ki67 (FIG. 10E).
# For FIG. 10D, tumors were snap-frozen in liquid nitrogen. […] Histones were quantified using the BCA protein assay (23225, Pierce). […] Subsequently, the developed colors in the wells were measured using a plate spectrophotometer (SpectraMax 250, Molecular Devices) at 450 nm (reference wavelength 650 nm). The H3K27me3 levels were adjusted to total histone H3, and expressed as fold changes to vehicle control. […] Histones were extracted and quantified, and the levels of H3K27me3 were analyzed as described above. […]
smiles,measurement,setting,value
CCN(c1cc(-c2ccc(CN3CCOCC3)cc2)cc(C(=O)NCc2c(C)cc(C)[nH]c2=O)c1C)C1CCOCC1 [Compound A],ratio of H3K27me3/total H3 (ratio to control),[1],decreased ratios
same,tumor volume,[2],dose-related tumor volume decrease
same,H3K27me3 levels in tumors,[3],significantly reduced
